Measured values as given in US20250360235A1, “RADI[…] AND METHOD FOR RADIOLABELLING” (Telix Innovations SA, priority 2024, published 2025).

Experiments:
[1] = Visual inspection of [68Ga]PSMA-11 solution (acceptance: colourless to slightly yellow solution, free from visible particles); assay type: physicochemical; set-up: key: C = all results conform to specifications
Procedure: (§1) Table 1 to Table 5 show the results of various radiolabelling experiments on radiochemical purity and the chelation yield. The radiolabelling experiments in the tables are carried out as described in: • Example 1 for when the gallium-68 source is GE Liquid target generator and EZAG GalliaPharm generator; • Example 2 for when the gallium-68 source is IRE Galli Eo generator; • Example 3 for when the gallium-68 source is GE solid target generator;
(§2) However, the experiments were carried out with the amount of ascorbic acid as indicated in the Tables 1 to 5, and the activity as indicated in the Tables 1 to 5. Radiochemical purities were measured at various times (T0, T1, T4, T6) after the radiolabelled experiments have been conducted.
(§3) The kits of Example 1, Example 2 or Example 3, with amounts of ascorbic acid as set out in Table 7 were used in the experiments for the ascorbic acid bracketing matrix. Three strengths of [^68Ga]Ga-PSMA-11 will be tested, i.e. 50 mCi/ml, 7 mCi/ml and 1 mCi/ml. Radiochemical purity was determined at different time points (TO, T1, T4 or T6), as set out in Table 7.

[2] = Radiochemical purity by HPLC over time after radiolabelling; assay type: physicochemical
Procedure: as §1, §2, §3

[3] = 25 mg ascorbic acid, 19.5-20.0 mCi, 1.85-1.90 mCi/mL, EZAG GalliaPharm, n=2, T0
[4] = 25 mg ascorbic acid, 19.5-20.0 mCi, 1.85-1.90 mCi/mL, EZAG GalliaPharm, n=2, T1 (1 h)
[5] = 25 mg ascorbic acid, 23.3-24 mCi, 2.22-2.28 mCi/mL, IRE Galli Eo, n=2, T0
[6] = 25 mg ascorbic acid, 23.3-24 mCi, 2.22-2.28 mCi/mL, IRE Galli Eo, n=2, T4 (4 h)

Structure (SMILES): O=C([O-])CN(CCN(CC(=O)[O-])Cc1cc(CCC(=O)NCCCCCC(=O)NCCCC[C@H](NC(=O)N[C@@H](CCC(=O)O)C(=O)O)C(=O)O)ccc1[O-])Cc1cc(CCC(=O)O)ccc1[O-].[68Ga+3].[OH3+] [[^68Ga]PSMA-11, gallium-68 radiolabelled Glu-urea-Lys-HBED-CC (gozetotide or PSMA-11)]
- Visual Inspection ([1]; 25 mg ascorbic acid, 10.2 mCi, 0.97 mCi/mL, IRE Galli Eo, n=1, T0): C
- Visual Inspection ([1]; 25 mg ascorbic acid, 10.2 mCi, 0.97 mCi/mL, IRE Galli Eo, n=1, T1 (1 h)): C
- Visual Inspection [1, 3]: C
- Visual Inspection [1, 4]: C
- Visual Inspection [1, 5]: C
- Visual Inspection [1, 6]: C
- Visual Inspection ([1]; 25 mg ascorbic acid, 46.0-46.1 mCi, 4.38-4.39 mCi/mL, EZAG GalliaPharm, n=2, T0): C
- Visual Inspection ([1]; 25 mg ascorbic acid, 46.0-46.1 mCi, 4.38-4.39 mCi/mL, EZAG GalliaPharm, n=2, T4 (4 h)): C
- Visual Inspection ([1]; control, 0 mg ascorbic acid, 70 mCi, GE Solid Target, n=1, T0): C
- Visual Inspection ([1]; control, 0 mg ascorbic acid, 70 mCi, GE Solid Target, n=1, T4 (4 h)): C
- Visual Inspection ([1]; validation batches, 25 mg ascorbic acid, 51.6-62.7 mCi, 4.56-5.88 mCi/mL, IRE Galli Eo, n=3, T0): C
- Visual Inspection ([1]; validation batches, 25 mg ascorbic acid, 51.6-62.7 mCi, 4.56-5.88 mCi/mL, IRE Galli Eo, n=3, T4 (4 h)): C
- Visual Inspection ([1]; validation batches, 25 mg ascorbic acid, 53.3-74.4 mCi, 5.03-6.92 mCi/mL, GE Liquid target, n=3, T0): C
- Visual Inspection ([1]; validation batches, 25 mg ascorbic acid, 53.3-74.4 mCi, 5.03-6.92 mCi/mL, GE Liquid target, n=3, T4 (4 h)): C
- Visual Inspection ([1]; validation batches, 25 mg ascorbic acid, 65.0-66.4 mCi, 5.74-6.15 mCi/mL, EZAG GalliaPharm, n=3, T0): C
- Visual Inspection ([1]; validation batches, 25 mg ascorbic acid, 65.0-66.4 mCi, 5.74-6.15 mCi/mL, EZAG GalliaPharm, n=3, T4 (4 h)): C
- Visual Inspection ([1]; validation batches, 25 mg ascorbic acid, 537-551 mCi, 50.2-51.6 mCi/mL, GE Solid Target, n=3, T0): C
- Visual Inspection ([1]; validation batches, 25 mg ascorbic acid, 537-551 mCi, 50.2-51.6 mCi/mL, GE Solid Target, n=3, T6 (6 h)): C
- Visual Inspection ([1]; validation batches, 25 mg ascorbic acid, 555-564 mCi, 51.1-52.7 mCi/mL, ARTMS Solid Target, n=3, T0): C
- Visual Inspection ([1]; validation batches, 25 mg ascorbic acid, 555-564 mCi, 51.1-52.7 mCi/mL, ARTMS Solid Target, n=3, T6 (6 h)): C
- Radiochemical Purity (HPLC) Ga-68 PSMA-11 (%) ([2]; 1 mg ascorbic acid, 58.7-71.1 mCi, 7.47-8.99 mCi/mL, GE Liquid target, average of 3, T0): 100%
- Radiochemical Purity (HPLC) Ga-68 PSMA-11 (%) ([2]; 1 mg ascorbic acid, 58.7-71.1 mCi, 7.47-8.99 mCi/mL, GE Liquid target, average of 3, T4 (4 h)): 100%
- Radiochemical Purity (HPLC) Ga-68 PSMA-11 (%) ([2]; 1 mg ascorbic acid, 58.7-71.1 mCi, 7.47-8.99 mCi/mL, GE Liquid target, n=3, T0): C (C = conforms to specifications)
- Radiochemical Purity (HPLC) Ga-68 PSMA-11 (%) ([2]; 1 mg ascorbic acid, 58.7-71.1 mCi, 7.47-8.99 mCi/mL, GE Liquid target, n=3, T4 (4 h)): C (C = conforms to specifications)
- Radiochemical Purity (HPLC) Ga-68 PSMA-11 (%) ([2]; 2.5 mg ascorbic acid, 49.9-76.9 mCi, 6.31-9.72 mCi/mL, GE Liquid target, average of 3, T0): 100%
- Radiochemical Purity (HPLC) Ga-68 PSMA-11 (%) ([2]; 2.5 mg ascorbic acid, 49.9-76.9 mCi, 6.31-9.72 mCi/mL, GE Liquid target, average of 3, T4 (4 h)): 100%
- Radiochemical Purity (HPLC) Ga-68 PSMA-11 (%) ([2]; 2.5 mg ascorbic acid, 49.9-76.9 mCi, 6.31-9.72 mCi/mL, GE Liquid target, n=3, T0): C (C = conforms to specifications)
- Radiochemical Purity (HPLC) Ga-68 PSMA-11 (%) ([2]; 2.5 mg ascorbic acid, 49.9-76.9 mCi, 6.31-9.72 mCi/mL, GE Liquid target, n=3, T4 (4 h)): C (C = conforms to specifications)
- Radiochemical Purity (HPLC) Ga-68 PSMA-11 (%) ([2]; 5 mg ascorbic acid, 60-69.9 mCi, 7.61-8.81 mCi/mL, 3 × GE Liquid Target, 3 × EZAG GalliaPharm, average of 6, T0): 100%
- Radiochemical Purity (HPLC) Ga-68 PSMA-11 (%) ([2]; 5 mg ascorbic acid, 60-69.9 mCi, 7.61-8.81 mCi/mL, 3 × GE Liquid Target, 3 × EZAG GalliaPharm, average of 6, T4 (4 h)): 100%
- Radiochemical Purity (HPLC) Ga-68 PSMA-11 (%) ([2]; 5 mg ascorbic acid, 60-69.9 mCi, 7.61-8.81 mCi/mL, 3 × GE Liquid Target, 3 × EZAG GalliaPharm, n=6, T0): C (C = conforms to specifications)
- Radiochemical Purity (HPLC) Ga-68 PSMA-11 (%) ([2]; 5 mg ascorbic acid, 60-69.9 mCi, 7.61-8.81 mCi/mL, 3 × GE Liquid Target, 3 × EZAG GalliaPharm, n=6, T4 (4 h)): C (C = conforms to specifications)
- Radiochemical Purity (HPLC) Ga-68 PSMA-11 (%) ([2]; 10 mg ascorbic acid, 514-520 mCi, 49.0-66.1 mCi/mL, GE Solid Target, average of 3, T0): 100%
- Radiochemical Purity (HPLC) Ga-68 PSMA-11 (%) ([2]; 10 mg ascorbic acid, 514-520 mCi, 49.0-66.1 mCi/mL, GE Solid Target, average of 3, T6 (6 h)): 100%
- Radiochemical Purity (HPLC) Ga-68 PSMA-11 (%) ([2]; 10 mg ascorbic acid, 514-520 mCi, 49.0-66.1 mCi/mL, GE Solid Target, n=3, T0): C (C = conforms to specifications)
- Radiochemical Purity (HPLC) Ga-68 PSMA-11 (%) ([2]; 10 mg ascorbic acid, 514-520 mCi, 49.0-66.1 mCi/mL, GE Solid Target, n=3, T6 (6 h)): C (C = conforms to specifications)
- Radiochemical Purity (HPLC) Ga-68 PSMA-11 (%) ([2]; 15 mg ascorbic acid, 10.0-18.4 mCi, 0.95-1.77 mCi/mL, 1 × EZAG GalliaPharm, 2 × IRE Galli Eo, average of 3, T0): 100%
- Radiochemical Purity (HPLC) Ga-68 PSMA-11 (%) ([2]; 15 mg ascorbic acid, 10.0-18.4 mCi, 0.95-1.77 mCi/mL, 1 × EZAG GalliaPharm, 2 × IRE Galli Eo, average of 3, T1 (1 h)): 100%
- Radiochemical Purity (HPLC) Ga-68 PSMA-11 (%) ([2]; 15 mg ascorbic acid, 10.0-18.4 mCi, 0.95-1.77 mCi/mL, 1 × EZAG GalliaPharm, 2 × IRE Galli Eo, n=3, T0): C (C = conforms to specifications)
- Radiochemical Purity (HPLC) Ga-68 PSMA-11 (%) ([2]; 15 mg ascorbic acid, 10.0-18.4 mCi, 0.95-1.77 mCi/mL, 1 × EZAG GalliaPharm, 2 × IRE Galli Eo, n=3, T1 (1 h)): C (C = conforms to specifications)
- Radiochemical Purity (HPLC) Ga-68 PSMA-11 (%) ([2]; 15 mg ascorbic acid, 23.7-47.6 mCi, 2.26-4.53 mCi/mL, 1 × EZAG GalliaPharm, 2 × IRE Galli Eo, average of 3, T0): 100%
- Radiochemical Purity (HPLC) Ga-68 PSMA-11 (%) ([2]; 15 mg ascorbic acid, 23.7-47.6 mCi, 2.26-4.53 mCi/mL, 1 × EZAG GalliaPharm, 2 × IRE Galli Eo, average of 3, T4 (4 h)): 100%
- Radiochemical Purity (HPLC) Ga-68 PSMA-11 (%) ([2]; 15 mg ascorbic acid, 23.7-47.6 mCi, 2.26-4.53 mCi/mL, 1 × EZAG GalliaPharm, 2 × IRE Galli Eo, n=3, T0): C (C = conforms to specifications)
- Radiochemical Purity (HPLC) Ga-68 PSMA-11 (%) ([2]; 15 mg ascorbic acid, 23.7-47.6 mCi, 2.26-4.53 mCi/mL, 1 × EZAG GalliaPharm, 2 × IRE Galli Eo, n=3, T4 (4 h)): C (C = conforms to specifications)
- Radiochemical Purity (HPLC) Ga-68 PSMA-11 (%) ([2]; 20 mg ascorbic acid, 514-544 mCi, 48.3-51.9 mCi/mL, GE Solid Target, average of 2, T0): 100%
- Radiochemical Purity (HPLC) Ga-68 PSMA-11 (%) ([2]; 20 mg ascorbic acid, 514-544 mCi, 48.3-51.9 mCi/mL, GE Solid Target, average of 2, T6 (6 h)): 100%
- Radiochemical Purity (HPLC) Ga-68 PSMA-11 (%) ([2]; 20 mg ascorbic acid, 514-544 mCi, 48.3-51.9 mCi/mL, GE Solid Target, n=2, T0): C (C = conforms to specifications)
- Radiochemical Purity (HPLC) Ga-68 PSMA-11 (%) ([2]; 20 mg ascorbic acid, 514-544 mCi, 48.3-51.9 mCi/mL, GE Solid Target, n=2, T6 (6 h)): C (C = conforms to specifications)
- Radiochemical Purity (HPLC) Ga-68 PSMA-11 (%) ([2]; 25 mg ascorbic acid, 19.5-20.0 mCi, 1.85-1.90 mCi/mL, EZAG GalliaPharm, average of 2, T0): 100%
- Radiochemical Purity (HPLC) Ga-68 PSMA-11 (%) ([2]; 25 mg ascorbic acid, 19.5-20.0 mCi, 1.85-1.90 mCi/mL, EZAG GalliaPharm, average of 2, T1 (1 h)): 100%
- Radiochemical Purity (HPLC) Ga-68 PSMA-11 (%) [2, 3]: C (C = all results conform to specifications)
- Radiochemical Purity (HPLC) Ga-68 PSMA-11 (%) [2, 4]: C (C = all results conform to specifications)
- Radiochemical Purity (HPLC) Ga-68 PSMA-11 (%) ([2]; 25 mg ascorbic acid, 23.3-24 mCi, 2.22-2.28 mCi/mL, IRE Galli Eo, average of 2, T0): 100%
- Radiochemical Purity (HPLC) Ga-68 PSMA-11 (%) ([2]; 25 mg ascorbic acid, 23.3-24 mCi, 2.22-2.28 mCi/mL, IRE Galli Eo, average of 2, T4 (4 h)): 100%
- Radiochemical Purity (HPLC) Ga-68 PSMA-11 (%) [2, 5]: C (C = all results conform to specifications)
- Radiochemical Purity (HPLC) Ga-68 PSMA-11 (%) [2, 6]: C (C = all results conform to specifications)
- Radiochemical Purity (HPLC) Ga-68 PSMA-11 (%) ([2]; 25 mg ascorbic acid, 46.0-46.1 mCi, 4.38-4.39 mCi/mL, EZAG GalliaPharm, average of 2, T0): 100%
- Radiochemical Purity (HPLC) Ga-68 PSMA-11 (%) ([2]; 25 mg ascorbic acid, 46.0-46.1 mCi, 4.38-4.39 mCi/mL, EZAG GalliaPharm, average of 2, T4 (4 h)): 100%
